Target: GST tagged truncated human mutant G2019S LRRK2 (Homo sapiens (Human), UniProt Q5S007, G2019S)
Experiment: LRRK2 Km ATP LanthaScreen Assay
Type: biochemical
Details: G2019S LRRK2, 134 μM ATP (Km ATP), mean values; for IC50: read-out: LRRK2 pIC50 (converted)
Outline: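 Enzyme (GST-tagged, truncated) was preincubated with compound for 15 min at RT in 50 mM Tris pH 8.5, 10 mM MgCl2, 0.01% Brij-35, 1 mM EGTA, 2 mM DTT and 0.05 mM orthovanadate. Fluorescein-LRRKtide and 134 μM ATP (Km) were then added for 90 min. EDTA and Tb-anti-pERM antibody stopped the reaction; the TR-FRET 520/495 ratio gave 4-parameter IC50s, reported as mean pIC50.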

Chain of GST tagged truncated human mutant G2019S LRRK2 (Q5S007 970-2527 G2019S): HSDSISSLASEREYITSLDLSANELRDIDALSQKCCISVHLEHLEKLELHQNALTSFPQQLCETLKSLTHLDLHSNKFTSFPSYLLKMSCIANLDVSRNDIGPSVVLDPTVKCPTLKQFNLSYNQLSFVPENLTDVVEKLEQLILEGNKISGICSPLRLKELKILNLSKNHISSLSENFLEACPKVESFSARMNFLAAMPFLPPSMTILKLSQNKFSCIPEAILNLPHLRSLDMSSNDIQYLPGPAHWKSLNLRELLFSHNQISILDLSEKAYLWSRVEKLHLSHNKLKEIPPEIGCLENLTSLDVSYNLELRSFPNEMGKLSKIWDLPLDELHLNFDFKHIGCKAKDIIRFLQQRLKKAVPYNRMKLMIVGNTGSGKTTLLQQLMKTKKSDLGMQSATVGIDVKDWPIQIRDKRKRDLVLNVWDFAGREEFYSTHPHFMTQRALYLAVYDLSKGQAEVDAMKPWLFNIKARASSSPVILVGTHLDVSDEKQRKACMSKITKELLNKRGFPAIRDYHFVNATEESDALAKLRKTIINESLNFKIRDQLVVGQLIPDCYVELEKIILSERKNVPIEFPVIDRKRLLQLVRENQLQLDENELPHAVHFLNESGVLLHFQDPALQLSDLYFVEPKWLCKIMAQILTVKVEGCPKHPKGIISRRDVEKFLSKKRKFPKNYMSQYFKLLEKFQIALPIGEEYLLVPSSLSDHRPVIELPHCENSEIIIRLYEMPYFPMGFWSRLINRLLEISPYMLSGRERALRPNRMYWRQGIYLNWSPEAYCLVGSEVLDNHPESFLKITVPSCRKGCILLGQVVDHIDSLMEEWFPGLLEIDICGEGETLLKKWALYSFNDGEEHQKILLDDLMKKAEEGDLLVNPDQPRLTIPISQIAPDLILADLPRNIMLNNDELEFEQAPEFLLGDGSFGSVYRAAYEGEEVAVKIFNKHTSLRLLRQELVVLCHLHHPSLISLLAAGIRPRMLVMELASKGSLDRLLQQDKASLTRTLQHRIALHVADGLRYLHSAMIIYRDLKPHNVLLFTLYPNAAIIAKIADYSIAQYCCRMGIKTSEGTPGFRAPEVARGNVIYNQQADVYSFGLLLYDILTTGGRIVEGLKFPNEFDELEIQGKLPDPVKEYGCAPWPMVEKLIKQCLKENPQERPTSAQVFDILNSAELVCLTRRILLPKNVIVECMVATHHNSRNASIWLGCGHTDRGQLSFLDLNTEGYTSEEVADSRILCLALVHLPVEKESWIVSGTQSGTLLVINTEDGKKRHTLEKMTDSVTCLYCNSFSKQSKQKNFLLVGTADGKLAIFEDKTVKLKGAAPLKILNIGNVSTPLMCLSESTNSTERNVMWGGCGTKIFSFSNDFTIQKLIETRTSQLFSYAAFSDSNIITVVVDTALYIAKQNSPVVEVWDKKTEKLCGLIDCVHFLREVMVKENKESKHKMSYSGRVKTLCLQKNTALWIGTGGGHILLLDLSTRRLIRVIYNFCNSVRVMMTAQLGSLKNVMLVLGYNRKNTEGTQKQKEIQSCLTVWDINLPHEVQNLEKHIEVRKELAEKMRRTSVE

SMILES	LRRK2 pIC50	IC50 [nM]
Cc1cc2cnc(Nc3cnn(C45CC(C4)C5)c3Cl)nc2cc1[C@H]1CCN([C@@H]2COC[C@@H]2O)C[C@@H]1F (single isomer, unassigned) [Ex-8.35, (3S,4S)(3S,4S) or (3S,4S)(3R,4R) or (3R,4R)(3S,4S) or (3R,4R)(3R,4R) 4-[4-(2-{[1-(bicyclo[1.1.1]pentan-1-yl)-5-chloro-1H-pyrazol-4-yl]amino}-6-methylquinazolin-7-yl)-3-fluoropiperidin-1-yl]oxolan-3-ol]	8.68	–
Cc1cc2cnc(Nc3cnn(C45CC(C4)C5)c3Cl)nc2cc1[C@H]1CCN([C@H]2COC[C@H]2O)C[C@@H]1F (single isomer, unassigned) [Ex-8.36, (3S,4S)(3S,4S) or (3S,4S)(3R,4R) or (3R,4R)(3S,4S) or (3R,4R)(3R,4R) 4-[4-(2-{[1-(bicyclo[1.1.1]pentan-1-yl)-5-chloro-1H-pyrazol-4-yl]amino}-6-methylquinazolin-7-yl)-3-fluoropiperidin-1-yl]oxolan-3-ol]	8.38	–
O[C@H]1COC[C@H]1N1CC[C@H](c2cc3nc(Nc4cnn(C56CC(C5)C6)c4Cl)ncc3cc2Cl)[C@@H](F)C1 (single isomer, unassigned) [Ex-8.37, (3S,4S)(3S,4S) or (3S,4S)(3R,4R) or (3R,4R)(3S,4S) or (3R,4R)(3R,4R) 4-[4-(2-{[1-(bicyclo[1.1.1]pentan-1-yl)-5-chloro-1H-pyrazol-4-yl]amino}-6-chloroquinazolin-7-yl)-3-fluoropiperidin-1-yl]oxolan-3-ol]	>9.20	–
Cc1c(Nc2ncc3cc(C(F)(F)F)c(C4CCN([C@@]5(C)COC[C@H]5O)CC4)cc3n2)cnn1C1CC1 (single isomer, unassigned) [Ex-9.1, (3S,4S) or (3R,4R) 4-(4-(2-((1-cyclopropyl-5-methyl-1H-pyrazol-4-yl)amino)-6-(trifluoromethyl)quinazolin-7-yl)piperidin-1-yl)-4-methyltetrahydrofuran-3-ol]	9.19	–
Cn1nc(Cl)cc1Nc1ncc2cc(Cl)c(C3CCN([C@@]4(C)COC[C@H]4O)CC3)cc2n1 (single isomer, unassigned) [Ex-10.1, (3S,4S) or (3R,4R) 4-(4-(6-chloro-2-((3-chloro-1-methyl-1H-pyrazol-5-yl)amino)quinazolin-7-yl)piperidin-1-yl)-4-methyltetrahydrofuran-3-ol]	–	0.776
Cc1cc2cnc(Nc3cnn(C4CC4(F)F)c3Cl)nc2cc1C1CCN([C@@H]2COC[C@@H]2O)CC1 (stereo in doubt) [Ex-2.34, 4-[4-(2-{[5-chloro-1-(2,2-difluorocyclopropyl)-1H-pyrazol-4-yl]amino}-6-methylquinazolin-7-yl)piperidin-1-yl]oxolan-3-ol]	–	< 0.631
Cc1cc(Nc2ncc3cc(Cl)c(C4CCN(C)CC4F)cc3n2)sn1 (stereo in doubt) [Ex-4.52, (3S,4R) or (3R,4R) 6-chloro-7-(3-fluoro-1-methylpiperidin-4-yl)-N-(3-methyl-1,2-thiazol-5-yl)quinazolin-2-amine]	9.06	–
CC1(O)CCC(c2cc3nc(Nc4cnn(C5CC5)c4Cl)ncc3cc2Cl)CC1 (stereo not drawn) [Ex-1.17, cis-or trans-4-(6-chloro-2-((5-chloro-1-cyclopropyl-1H-pyrazol-4-yl)amino)quinazolin-7-yl)-1-methylcyclohexan-1-ol]	8.58	–
CC1(O)CCC(c2cc3nc(Nc4cnn(C5CC5)c4)ncc3cc2Cl)CC1 (stereo not drawn) [Ex-1.18, cis-or trans-4-(6-chloro-2-((1-cyclopropyl-1H-pyrazol-4-yl)amino)quinazolin-7-yl)-1-methylcyclohexan-1-ol]	8.59	–
COCC12CC(n3cc(Nc4ncc5cc(Cl)c(C6CCN(C7(C)COC7)CC6)cc5n4)cn3)(C1)C2 [Ex-2.3, 6-chloro-N-(1-(3-(methoxymethyl)bicyclo[1.1.1]pentan-1-yl)-1H-pyrazol-4-yl)-7-(1-(3-methyloxetan-3-yl)piperidin-4-yl)quinazolin-2-amine]	>9.20	–
COC(C)(C)Cn1ncc(Nc2ncc3cc(Cl)c(C4CCN(C5COC5)CC4)cc3n2)c1Cl [Ex-2.10, 6-chloro-N-[5-chloro-1-(2-methoxy-2-methylpropyl)-1H-pyrazol-4-yl]-7-[1-(oxetan-3-yl)piperidin-4-yl]quinazolin-2-amine]	>9.20	–
CC(C)(Cn1ncc(Nc2ncc3cc(Cl)c(C4CCN(C5COC5)CC4)cc3n2)c1Cl)OC(F)F [Ex-2.13, 6-chloro-N-{5-chloro-1-[2-(difluoromethoxy)-2-methylpropyl]-1H-pyrazol-4-yl}-7-[1-(oxetan-3-yl)piperidin-4-yl]quinazolin-2-amine]	9.15	–
COC(C)(C)Cn1ncc(Nc2ncc3cc(Cl)c(C4CCN(C5COC5)CC4)cc3n2)c1C [Ex-2.14, 6-chloro-N-[1-(2-methoxy-2-methylpropyl)-5-methyl-1H-pyrazol-4-yl]-7-[1-(oxetan-3-yl)piperidin-4-yl]quinazolin-2-amine]	9.17	–
Cc1c(Nc2ncc3cc(Cl)c(C4CCN(C5COC5)CC4)cc3n2)cnn1CC1(C#N)CC1 [Ex-2.15, 1-{[4-({6-chloro-7-[1-(oxetan-3-yl)piperidin-4-yl]quinazolin-2-yl}amino)-5-methyl-1H-pyrazol-1-yl]methyl}cyclopropane-1-carbonitrile]	>9.20	–
COC(C)(C)Cn1cc(Nc2ncc3cc(Cl)c(C4CCN(C5COC5)CC4)cc3n2)c(C)n1 [Ex-2.16, 6-chloro-N-[1-(2-methoxy-2-methylpropyl)-3-methyl-1H-pyrazol-4-yl]-7-[1-(oxetan-3-yl)piperidin-4-yl]quinazolin-2-amine]	8.94	–
Cc1nn(CC2(C#N)CC2)cc1Nc1ncc2cc(Cl)c(C3CCN(C4COC4)CC3)cc2n1 [Ex-2.17, 1-{[4-({6-chloro-7-[1-(oxetan-3-yl)piperidin-4-yl]quinazolin-2-yl}amino)-3-methyl-1H-pyrazol-1-yl]methyl}cyclopropane-1-carbonitrile]	>9.20	–
CC1(N2CCC(c3cc4nc(Nc5cnn(C67CC(C6)C7)c5)ncc4cc3Cl)CC2)COC1 [Ex-2.18, N-(1-(bicyclo[1.1.1]pentan-1-yl)-1H-pyrazol-4-yl)-6-chloro-7-(1-(3-methyloxetan-3-yl)piperidin-4-yl)quinazolin-2-amine]	–	< 0.631
Cc1c(Nc2ncc3cc(Cl)c(C4CCN(C5COC5)CC4)cc3n2)cnn1C(C)(C)C#N [Ex-2.19, 2-[4-({6-chloro-7-[1-(oxetan-3-yl)piperidin-4-yl]quinazolin-2-yl}amino)-5-methyl-1H-pyrazol-1-yl]-2-methylpropanenitrile]	>9.20	–
Cc1c(Nc2ncc3cc(Cl)c(C4CCN(C5(C)COC5)CC4)cc3n2)cnn1C(C)(C)C#N [Ex-2.20, 2-[4-({6-chloro-7-[1-(3-methyloxetan-3-yl)piperidin-4-yl]quinazolin-2-yl}amino)-5-methyl-1H-pyrazol-1-yl]-2-methylpropanenitrile]	>9.20	–
Cc1c(Nc2ncc3cc(Cl)c(C4CCN(C5COC5)CC4)cc3n2)cnn1C12CC(C1)C2 [Ex-2.21, N-[1-(bicyclo[1.1.1]pentan-1-yl)-5-methyl-1H-pyrazol-4-yl]-6-chloro-7-[1-(oxetan-3-yl)piperidin-4-yl]quinazolin-2-amine]	–	0.676
